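Values below derive from 48-hour exposures of cells grown in 96-well plates, with endpoints linearly interpolated between the two concentrations bracketing the appropriate inhibition level. GI50: concentration for 50% inhibition of growth.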 Active and inactive are the calls of the source. No stated cut-off is given here; in the data, active = GI50 up to about 1.1 µM and inactive = higher.
What was measured:
Assay in all cases: NCI-60 cell line screen, 48 h
IGROV-1 = test system: IGROV-1
SK-MEL-5 = test system: SK-MEL-5
MDA-N = test system: MDA-N
SN12C = test system: SN12C
SF-295 = test system: SF-295
NCI-H522 = test system: NCI-H522
UACC-257 = test system: UACC-257
CAKI-1 = test system: CAKI-1
NCI-H460 = test system: NCI-H460
DU-145 = test system: DU-145
RXF 393 = test system: RXF 393
HT-29 = test system: HT-29
NCI-H23 = test system: NCI-H23
UACC-62 = test system: UACC-62
HOP-92 = test system: HOP-92
CCRF-CEM = test system: CCRF-CEM
SR = test system: SR
SW-620 = test system: SW-620
OVCAR-5 = test system: OVCAR-5
SK-MEL-2 = test system: SK-MEL-2
SF-539 = test system: SF-539
ACHN = test system: ACHN
NCI-H226 = test system: NCI-H226
HCT-116 = test system: HCT-116
EKVX = test system: EKVX
RPMI-8226 = test system: RPMI-8226
UO-31 = test system: UO-31
KM12 = test system: KM12
PC-3 = test system: PC-3
K562 = test system: K562
SNB-19 = test system: SNB-19
M14 = test system: M14
OVCAR-4 = test system: OVCAR-4
U-251 = test system: U-251
MDA-MB-231 = test system: MDA-MB-231
HCT-15 = test system: HCT-15
786-0 = test system: 786-0
MDA-MB-435 = test system: MDA-MB-435
SNB-75 = test system: SNB-75
BT-549 = test system: BT-549
A498 = test system: A498
SK-OV-3 = test system: SK-OV-3
NCI/ADR-RES = test system: NCI/ADR-RES
MOLT-4 = test system: MOLT-4
HL-60 = test system: HL-60
OVCAR-3 = test system: OVCAR-3
LOX IMVI = test system: LOX IMVI
COLO 205 = test system: COLO 205
TK-10 = test system: TK-10
OVCAR-8 = test system: OVCAR-8
A549 = test system: A549
Malme-3M = test system: Malme-3M
SK-MEL-28 = test system: SK-MEL-28
HCC 2998 = test system: HCC 2998
HOP-62 = test system: HOP-62
MCF7 = test system: MCF7
Hs-578T = test system: Hs-578T
SF-268 = test system: SF-268
T47D = test system: T47D

**Q.** Which results are given for `CC(=O)N(C(C)=O)n1c(Cc2ccc(Cl)cc2)n[nH]c1=O`?
**A.** GI50 (IGROV-1): > 100 µM (inactive); GI50 (SK-MEL-5): > 100 µM (inactive); GI50 (MDA-N): > 100 µM (inactive); GI50 (SN12C): > 100 µM (inactive); GI50 (SF-295): > 64.4 µM (inactive); GI50 (NCI-H522): > 100 µM (inactive); GI50 (UACC-257): > 100 µM (inactive); GI50 (CAKI-1): > 100 µM (inactive); GI50 (NCI-H460): > 100 µM (inactive); GI50 (DU-145): > 100 µM (inactive); GI50 (RXF 393): 28.5 µM (inactive); GI50 (HT-29): > 100 µM (inactive); GI50 (NCI-H23): > 100 µM (inactive); GI50 (UACC-62): > 100 µM (inactive); GI50 (HOP-92): > 100 µM (inactive); GI50 (CCRF-CEM): > 100 µM (inactive); GI50 (SR): > 100 µM (inactive); GI50 (SW-620): > 100 µM (inactive); GI50 (OVCAR-5): > 100 µM (inactive); GI50 (SK-MEL-2): > 100 µM (inactive); GI50 (SF-539): > 100 µM (inactive); GI50 (ACHN): > 100 µM (inactive); GI50 (NCI-H226): > 100 µM (inactive); GI50 (HCT-116): > 100 µM (inactive); GI50 (EKVX): > 100 µM (inactive); GI50 (RPMI-8226): > 100 µM (inactive); GI50 (UO-31): > 100 µM (inactive); GI50 (KM12): > 100 µM (inactive); GI50 (PC-3): > 100 µM (inactive); GI50 (K562): > 100 µM (inactive); GI50 (SNB-19): > 100 µM (inactive); GI50 (M14): > 100 µM (inactive); GI50 (OVCAR-4): > 100 µM (inactive); GI50 (U-251): > 100 µM (inactive); GI50 (MDA-MB-231): > 100 µM (inactive); GI50 (HCT-15): > 100 µM; GI50 (786-0): > 100 µM (inactive); GI50 (MDA-MB-435): > 100 µM (inactive); GI50 (SNB-75): > 81.8 µM (inactive); GI50 (BT-549): > 100 µM (inactive); GI50 (A498): > 100 µM (inactive); GI50 (SK-OV-3): > 100 µM (inactive); GI50 (NCI/ADR-RES): > 100 µM (inactive); GI50 (MOLT-4): > 100 µM (inactive); GI50 (HL-60): > 100 µM (inactive); GI50 (OVCAR-3): > 100 µM (inactive); GI50 (LOX IMVI): > 88.5 µM (inactive); GI50 (COLO 205): > 100 µM (inactive); GI50 (TK-10): > 100 µM (inactive); GI50 (OVCAR-8): > 100 µM (inactive); GI50 (A549): > 100 µM (inactive); GI50 (Malme-3M): > 52.7 µM (inactive); GI50 (SK-MEL-28): > 100 µM (inactive); GI50 (HCC 2998): > 100 µM (inactive); GI50 (HOP-62): > 55.8 µM (inactive); GI50 (MCF7): > 100 µM (inactive); GI50 (Hs-578T): > 100 µM (inactive); GI50 (SF-268): > 100 µM (inactive)

**Q.** Which results are given for `C=CCNC1=C2C[C@@H](C)C[C@@H](OC)[C@H](OC(=O)CCCCN)[C@H](C)/C=C(\C)[C@@H](OC(N)=O)[C@H](OC)/C=C\C=C(/C)C(=O)NC(=CC1=O)C2=O`?
**A.** GI50 (IGROV-1): 13.6 µM (inactive); GI50 (SK-MEL-5): 11.6 µM (inactive); GI50 (MDA-N): 8.55 µM (inactive); GI50 (SN12C): 13 µM (inactive); GI50 (SF-295): 15.7 µM (inactive); GI50 (NCI-H522): 13.6 µM (inactive); GI50 (UACC-257): 6.17 µM (inactive); GI50 (CAKI-1): 18.5 µM (inactive); GI50 (NCI-H460): 11.6 µM (inactive); GI50 (DU-145): 6.47 µM (inactive); GI50 (RXF 393): 14.8 µM (inactive); GI50 (HT-29): 4.27 µM (inactive); GI50 (NCI-H23): 14.6 µM (inactive); GI50 (UACC-62): 14.6 µM (inactive); GI50 (HOP-92): 18.8 µM (inactive); GI50 (CCRF-CEM): 7.01 µM (inactive); GI50 (SR): 4.93 µM (inactive); GI50 (SW-620): 6.18 µM (inactive); GI50 (OVCAR-5): 19 µM (inactive); GI50 (T47D): 14.8 µM (inactive); GI50 (SK-MEL-2): 3.72 µM (inactive); GI50 (ACHN): 19.5 µM (inactive); GI50 (HCT-116): 13.8 µM (inactive); GI50 (EKVX): 13.7 µM (inactive); GI50 (RPMI-8226): 9.04 µM (inactive); GI50 (UO-31): 19.5 µM (inactive); GI50 (KM12): 4.97 µM (inactive); GI50 (K562): 9.62 µM (inactive); GI50 (SNB-19): 11.3 µM (inactive); GI50 (M14): 13.4 µM (inactive); GI50 (OVCAR-4): 15.8 µM (inactive); GI50 (U-251): 10.9 µM (inactive); GI50 (MDA-MB-231): 14.2 µM (inactive); GI50 (HCT-15): 18.7 µM; GI50 (786-0): 13.4 µM (inactive); GI50 (MDA-MB-435): 12.8 µM (inactive); GI50 (SNB-75): 5.51 µM (inactive); GI50 (BT-549): 19 µM (inactive); GI50 (A498): 12.9 µM (inactive); GI50 (SK-OV-3): 6.31 µM (inactive); GI50 (NCI/ADR-RES): > 100 µM (inactive); GI50 (MOLT-4): 9.14 µM (inactive); GI50 (HL-60): 11.7 µM (inactive); GI50 (OVCAR-3): 3.22 µM (inactive); GI50 (LOX IMVI): 12.6 µM (inactive); GI50 (COLO 205): 5.22 µM (inactive); GI50 (TK-10): 15 µM (inactive); GI50 (OVCAR-8): 19.4 µM (inactive); GI50 (A549): 11.9 µM (inactive); GI50 (Malme-3M): 6.71 µM (inactive); GI50 (SK-MEL-28): 18.5 µM (inactive); GI50 (HCC 2998): 4.27 µM (inactive); GI50 (HOP-62): 5.83 µM (inactive); GI50 (MCF7): 3.77 µM (inactive); GI50 (Hs-578T): 25.6 µM (inactive); GI50 (SF-268): 16.9 µM (inactive)
